Results as given in patent EP0335369A2, “New anthracycline derivatives and processes for the preparation of the same” (priority 1988, dated 1989).
≈ marks a conversion by molar mass, not a printed value. Like-named read-outs stand apart in the source and are kept apart here.

Columns and labels:
Leukemia L-1210 cells [1] = assay: Test 1: antitumor activity against leukemia induced in CDF1 mice by Leukemia L-1210 cells (life-span increase); type: in vivo; conditions: intraperitoneally once per day for 9 consecutive days, observation 60 days
Procedure: Antitumor activities against leukemia in CDF, mice as induced by mouse leukemia, Leukemia L-1210 cells
After an elapsed time of 24 hours, a compounds of the formula (I) of this invention to be tested was administered intraperitoneally for 9 consecutive days once per day. Observation was made for 60 days, where survival days of each mouse tested were recorded. In comparison with the control test wherein mice were treated with the administration of physiological saline alone, the increase (%) in the life-span of the treated mice was calculated as T/C %, where T is the mean survival days of the treated animals and C is the mean survival days of the untreated control animals. For the comparison, daunomycin and adriamycin were also tested in the same manner.

P388/ADR (resistant) = assay: Test 2: growth inhibition of cultured mouse leukemia cells, 72 hours incubation; type: cell-based; conditions: P 388/ADR cells
Procedure: (§1) 7-O-(2,6-Dideoxy-2-fluoro-«-L-mannopyranosyl)adriamycinone 14-O-hemipimelate, which is a compounds according to this invention, was then added at varying concentrations. The incubation of the cells was thereafter continued for 72 hours to measure the 50% inhibitory concentration (ICso, ng/m t) of the test compound against the growth of the tunmor cells.

[2] = tested on: mouse leukemia P 388/S (sensitive); assay: as above; type: cell-based; conditions: P 388/S cells
Procedure: as §1

[3] = Solubility in phosphate buffer solution of pH 7.4 at room temperature; type: physicochemical; conditions: for solubility: aqueous buffer, room temperature, read-out: Solubility; for solubility in the phosphate buffer solution (in words): phosphate buffer solution (0.05 M KH2PO4-NaOH) at pH 7.4
Leukemia L-1210 cells [4] = assay: Test 3: antitumor activity against leukemia induced in CDF1 mice by Leukemia L-1210 cells (procedure of Test 1 repeated); type: in vivo; conditions: intraperitoneally once per day for 9 consecutive days, observation 60 days
Procedure: Antitumor activities against leukemia in CDF1 mice as induced by mouse leukemia, Leukemia L-1210 cells
To evaluate the antitumor effects of the compounds of the formula (I') according to the sixth aspect of this invention against experimental tumors in animals, the procedure of Test 1 given hereinbefore is repeated. Thus, CDF1 mice were intraperitoneally transplanted with cells of Leukemia L-1210 (at a dose of 1 x 10^5 cells/mouse). After an elapsed time of 24 hours from the tumor transplantation, a test compound of the formula (I') of the sixth aspect invention to be evaluated was administered intraperitoneally for 9 consecutive days once per day. Observation was made for 60 day, where survival days of each mouse tested were recorded. In comparison with the control test wherein mice were treated with the administration of physiological saline alone, the increase (%) in the life-span of the treated mice was calculated as T/C %, where T is the mean survival days of the treated animals and C is the mean survival days of the untreated control animals. For the comparison, daunomycin and adriamycin were also tested in the same manner.

[5] = compounds (Ic), phosphate buffer solution of pH 7.4 (0.05 M KH2PO4-NaOH)
[6] = compounds (I'-c) or (I'-d), phosphate buffer solution of pH 7.4 (0.05M KH2PO4-NaOH)

## COc1cccc2c1C(=O)c1c(O)c3c(c(O)c1C2=O)C[C@@](O)(C(=O)COC(=O)CCCCCC(=O)O)C[C@@H]3O[C@@H]1O[C@@H](C)[C@H](O)[C@@H](O)[C@H]1F [Example 9]
Leukemia L-1210 cells [1]; Dose 0.15 mg/kg/day
  % Increase in life-span (T/C, %): 123%
Leukemia L-1210 cells [1]; Dose 0.3 mg/kg/day
  % Increase in life-span (T/C, %): 274%
Leukemia L-1210 cells [1]; Dose 0.6 mg/kg/day
  % Increase in life-span (T/C, %): >329%
Leukemia L-1210 cells [1]; Dose 1.25 mg/kg/day
  % Increase in life-span (T/C, %): >346%
Leukemia L-1210 cells [1]; Dose 2.5 mg/kg/day
  % Increase in life-span (T/C, %): >686%
Leukemia L-1210 cells [1]; Dose 5 mg/kg/day
  % Increase in life-span (T/C, %): >463%
P388/ADR (resistant); Mus musculus, P388/ADR, read-out: IC50 (ng/mℓ) P 388/ADR
  IC50: 39.8 ng/mL (≈ 0.0565 µM)
[2]; Mus musculus, P388/S, read-out: IC50 (ng/mℓ) P 388/S
  IC50: 0.3 ng/mL (≈ 0.000426 µM)
[3]; [5]
  solubility: 32000 µg/mL (≈ 45400 µM)

## COc1cccc2c1C(=O)c1c(O)c3c(c(O)c1C2=O)C[C@@](O)(C(=O)COC(=O)CCCCCCC(=O)O)C[C@@H]3O[C@@H]1O[C@@H](C)[C@H](O)[C@@H](O)[C@H]1F [Example 10, 7-O-(2,6-dideoxy-2-fluoro-α-L-mannopyranosyl)adriamycinone 14-0-hemisuberate]
[3]; [5]
  solubility: 30000 µg/mL (≈ 41700 µM)

## C[C@@H]1O[C@@H](O[C@H]2C[C@](O)(C(=O)COC(=O)CCCCCC(=O)O)Cc3c(O)c4c(c(O)c32)C(=O)c2ccccc2C4=O)[C@H](F)[C@H](O)[C@H]1O [Example 11, 7-O-(2,6-dideoxy-2-fluoro-a-L-mannopyranosyl)-4-demethoxyadriamycinone 14-0-hemipimelate]
Leukemia L-1210 cells [1]; Dose 0.15 mg/kg/day
  % Increase in life-span (T/C, %): 121%
Leukemia L-1210 cells [1]; Dose 0.3 mg/kg/day
  % Increase in life-span (T/C, %): >363%
Leukemia L-1210 cells [1]; Dose 0.6 mg/kg/day
  % Increase in life-span (T/C, %): 175%
Leukemia L-1210 cells [1]; Dose 1.25 mg/kg/day
  % Increase in life-span (T/C, %): 111%
[3]; [5]
  solubility: < 1000 µg/mL

## CCCCC(=O)OCC(=O)[C@]1(O)Cc2c(O)c3c(c(O)c2[C@@H](O[C@@H]2O[C@@H](C)[C@@H](O)[C@@H](O)[C@H]2F)C1)C(=O)c1ccccc1C3=O [Example 14, 4-demothoxy-7-O-(2,6-dideoxy-2-fluoro-α-L-talopyranosyl)adriamycinone 14-0-valerate]
[3]; [6]
  solubility: < 1000 µg/mL

## C[C@@H]1O[C@@H](O[C@H]2C[C@](O)(C(=O)COC(=O)CCCC(=O)O)Cc3c(O)c4c(c(O)c32)C(=O)c2ccccc2C4=O)[C@H](F)[C@H](O)[C@@H]1O [Example 16, 4-demethoxy-7-O-(2,6-dideoxy-2-fluoro-α-L-talopyranosyl)adriamycinone 14-0-hemiglutarate]
[3]; [6]
  solubility: 10000 µg/mL (≈ 15500 µM)
[3]
  solubility in the phosphate buffer solution (in words): soluble

## C[C@@H]1O[C@@H](O[C@H]2C[C@](O)(C(=O)COC(=O)CCCCC(=O)O)Cc3c(O)c4c(c(O)c32)C(=O)c2ccccc2C4=O)[C@H](F)[C@H](O)[C@@H]1O [Example 17, 4-demethoxy-7-O-(2,6-dideoxy-2-fluoro-α-L-talopyranosyl)adriamycinone 14-0-hemiadipate]
[3]; [6]
  solubility: 6000 µg/mL (≈ 9080 µM)
Leukemia L-1210 cells [4]; Dose 0.04 mg/kg/day
  % Increase in life-span (T/C, %): 99%
Leukemia L-1210 cells [4]; Dose 0.08 mg/kg/day
  % Increase in life-span (T/C, %): 99%
Leukemia L-1210 cells [4]; Dose 0.15 mg/kg/day
  % Increase in life-span (T/C, %): 130%
Leukemia L-1210 cells [4]; Dose 0.3 mg/kg/day
  % Increase in life-span (T/C, %): 166%
Leukemia L-1210 cells [4]; Dose 0.6 mg/kg/day
  % Increase in life-span (T/C, %): 242%
Leukemia L-1210 cells [4]; Dose 1.25 mg/kg/day
  % Increase in life-span (T/C, %): > 296%

## C[C@@H]1O[C@@H](O[C@H]2C[C@](O)(C(=O)COC(=O)CCCCCC(=O)O)Cc3c(O)c4c(c(O)c32)C(=O)c2ccccc2C4=O)[C@H](F)[C@H](O)[C@@H]1O [Example 18, 4-demethoxy-7-O-(2,6-dideoxy-2-fluoro-a-L-talopyranosyl)adriamycinone 14-0-hemipimelate]
[3]; [6]
  solubility: < 1000 µg/mL
[3]
  solubility in the phosphate buffer solution (in words): scarcely soluble

## COc1cccc2c1C(=O)c1c(O)c3c(c(O)c1C2=O)C[C@@](O)(C(=O)COC(=O)CCCCCC(=O)O)C[C@@H]3O[C@@H]1O[C@@H](C)[C@@H](O)[C@@H](O)[C@H]1F [Referential compound, 7-O-(2,6-dideoxy-2-fluoro-«-L-talopyranosyl)-adriamycinone 14-0-hemipimelate, reference compound]
P388/ADR (resistant)
  IC50 (ng/mℓ) P 388/ADR: 485 ng/mL (≈ 0.688 µM)
[2]
  IC50 (ng/mℓ) P 388/S: 3.3 ng/mL (≈ 0.00468 µM)
